Experimental findings from ChEMBL document CHEMBL1157539, “Thousands of chemical starting points for antimalarial lead identification” (Nature, 2010) are described below.

The test system of the test is Plasmodium falciparum. Put plainly: GSK_TCMDC: Inhibition of Plasmodium falciparum 3D7 in whole erythrocytes, using parasite LDH activity as an index of growth. The test is classed as functional, organism-based. The conditions noted are these: Plasmodium falciparum, 3D7.
Turning to `Cc1ccc2nc(C)cc(N/N=C/c3cccc([N+](=O)[O-])c3)c2c1`, the XC50 was 876 nM.

In turn, `CN(C)C(C)(C)CN(Cc1ccc(-c2ccc(C(F)(F)F)cc2)cc1)C(=O)Cn1c(CCc2cccc(F)c2F)nc(=O)c2ccccc21` had an XC50 of 827 nM.

On to `COc1ccc(-c2nc3c(NCc4ccccc4)nccc3[nH]2)c(OC)c1`, for which the XC50 worked out at 778 nM.

As for `COc1cccc(NC(=O)COc2ccc(C(=O)Nc3nc4ccccc4[nH]3)cc2)c1`, the XC50 was found to be 970 nM.

With `Cc1ccccc1/N=C1\NC(=S)N(c2cccc(C(F)(F)F)c2)C12CCC(C(C)(C)C)CC2` (stereo unspecified), the XC50 is 973 nM.

In turn, `O=S(=O)(Nc1cccc(CCN2CCCCC2CCN2CCCC2)c1)c1ccc(Oc2ccccc2)cc1` (stereo unspecified) displayed an XC50 of 1050 nM.

`c1ccc(-n2ncc(CNCc3ccc(-c4ccc(-c5nc6ccccc6[nH]5)s4)cc3)n2)cc1` showed an XC50 of 1400 nM.

`CO/C(=C\C=C\c1cc2cc(Cl)c(Cl)cc2[nH]1)C(=O)NCCCN1CCN(C2CCCCC2)CC1` registered an XC50 of 1010 nM.

In the case of `CCn1c(Cc2ccccc2)nnc1Sc1ccc([N+](=O)[O-])c(C#N)c1`, the XC50 came out at 1010 nM.

As for `c1ccc(CN2CCN(c3cc(-c4cncc(-c5ccccc5)c4)nc(-c4ccccc4)n3)CC2)cc1`, the XC50 turned out to be 1040 nM.

`Cc1[nH]c(C)c(-c2ccc(OCc3cc(F)cc(F)c3)nc2)c(=O)c1Cl` had an XC50 of 86.8 nM.

As to `CC(C)N(CCOc1ccc2c(c1)N(C(=O)Nc1ccc(Cl)c(Cl)c1)CC2)C(C)C`, the XC50 came out at 367 nM.

`Oc1ccc(CCNc2nc(NCCOc3cccc4ccccc34)nc(N3CCNCC3)n2)cc1` had an XC50 of 901 nM.

Regarding `COc1ccc(-c2cccc(NC(=O)c3ccc(C#N)cc3)c2)cc1CN1CCCN(C)CC1`, the XC50 came to 756 nM.

Turning to `Cc1cc(=NN=Cc2ccc(Cl)cc2)c2cc(C(F)(F)F)ccc2[nH]1`, the XC50 turned out to be 920 nM.

In turn, `Cc1onc(-c2ccccc2)c1-c1nc(NCc2ccccc2Cl)no1` registered an XC50 of 699 nM.

`CCc1cc(Br)c2c(c1)C(NCCCNc1cc(=O)c3ccccc3[nH]1)CCN2` (stereo unspecified) showed an XC50 of 852 nM.

Compound `Cc1c(N)ccc2[nH]c(-c3ccc(N)cc3)nc12` had an XC50 of 1210 nM.

Take `FC(F)(F)c1cccnc1N1CCC(Nc2nc3cc(Cl)ccc3[nH]2)CC1`: the XC50 was 646 nM.

`CN1CCN(CCCN(Cc2cccc(-c3ccc(CNC4CCCC4)cc3)c2)C(=O)/C=C/c2ccccc2)CC1` showed an XC50 of 746 nM.

As for `CCCCOP(=O)(OCCCC)C(=Cc1ccc(O)c2ccccc12)P(=O)(OCCCC)OCCCC`, the XC50 came to 1070 nM.

In the case of `COc1ccc2nccc([C@@H](O)CN3CCC(NCc4cc5ccccc5o4)CC3)c2c1`, the XC50 stood at 658 nM.

`Cc1cn(CC(=O)Nc2cccc(-c3cccc(-c4nc5cccc(C)c5[nH]4)c3)c2)c(=O)[nH]c1=O` showed an XC50 of 581 nM.

For the compound `O=C(N[C@H]1CCN(Cc2ccc(OCCN3CCCC3)c(Cl)c2)C1)c1ccc(Cl)c(Cl)c1`, the XC50 turned out to be 921 nM.

For `CCNc1cc(C(=O)N[C@@H](Cc2ccoc2)[C@H](O)CNC(C)CCCC(C)C)cc(N2CCCCS2(=O)=O)c1` (stereo partly specified), the XC50 turned out to be 619 nM.

Consider `COc1ccc(S(=O)(=O)N2CCCc3ccc(Br)cc32)cc1N1CCN(C(=O)C(Cl)(Cl)Cl)CC1`, for which the XC50 was found to be 809 nM.

Compound `CC[C@H](C)CNC(=O)c1cncc(-c2ccc(CNCCOc3ccccc3)cc2)c1` came in with an XC50 of 1110 nM.

In the case of `C=CC[C@H](C[C@H](O)[C@H](Cc1ccccc1)NC(=O)c1ccc(-n2cccn2)cc1)C(=O)NC1CCCCC1`, the XC50 is 810 nM.

The compound `Cc1cc2c(cc1C(F)(F)F)N(C(=O)Nc1cccc(C(=O)NC3CCN(Cc4ccccc4)CC3)c1)CC2` returned an XC50 of 912 nM.

Compound `Cc1cccc2nc(-c3cccc(-c4cccc(CN5CCCC5CN)c4)c3)[nH]c12` (stereo unspecified) returned an XC50 of 767 nM.

Consider `CC1(C)N=C(N)N=C(N)N1c1ccccc1`, for which the XC50 came to 327 nM.

Compound `Cc1cccc2nc(-c3cccc(-c4cccc(NC(=O)Cc5ccc[n+]([O-])c5)c4)c3)[nH]c12` yielded an XC50 of 635 nM.

`N#Cc1ccc(N2CCN(Cc3cccc(-c4ccc(-c5nc6ccccc6[nH]5)cc4)c3)CC2)nc1` yielded an XC50 of 1240 nM.

`COc1ccc2nccc(NCC3(O)CCC(NCc4cc5c(cn4)OCCO5)CC3)c2n1` (stereo unspecified) had an XC50 of 664 nM.

With `CCCCCCNC(=O)C1Cc2c([nH]c3ccc(Br)cc23)C2(CCN(CCc3ccccc3)CC2)N1` (stereo unspecified), the XC50 was determined as 788 nM.

Compound `COc1ccc(-c2cc(C(F)(F)F)n3ncc(C(=O)Nc4cc(C)ccc4O)c3n2)cc1OC` displayed an XC50 of 133 nM.

The compound `CN(C)CCCN1CCN(C(=O)c2cccc(-c3noc(C(F)(F)F)n3)c2)CC1` yielded an XC50 of 353 nM.

For the compound `CCN(CC)c1nc(N)c2c(N)nc3c(c2c1C#N)C(=O)CN3Cc1ccccc1`, the XC50 worked out at 70.8 nM.

In the case of `Oc1ccc2[nH]c(-c3cccc(F)c3)nc2c1CN1CCC(N2CCCC2)CC1`, the XC50 turned out to be 184 nM.

Compound `CC(C)c1cc(C(=O)N[C@@H](Cc2ccccc2)[C@H](O)CNC2CCCCC2)cc(N2CCCC2=O)c1` displayed an XC50 of 121 nM.

On to `Cc1cccc(-n2c(=O)c3c4c(sc3n3c(SCCC(C)C)nnc23)CCCC4)c1`, for which the XC50 was 763 nM.

`CCCCCCC(C)c1cc(O)c2c(c1)OC(=O)CC2(CC)c1ccccn1` (stereo unspecified) returned an XC50 of 335 nM.

With `Clc1ccccc1/C=C/c1cncnc1Nc1ccc2[nH]c(Cc3ccccc3)nc2c1`, the XC50 stood at 915 nM.

Take `Cc1cc(C(F)(F)F)n2nc(C(=O)N(C)Cc3cncn3Cc3ccc(F)cc3)cc2n1`: the XC50 turned out to be 832 nM.

Take `O=C(Nc1cccc(CN2CCCN(CCc3ccccc3)CC2)c1)c1ccc(Cl)c(Cl)c1`: the XC50 is 952 nM.

Regarding `COc1ccc(Nc2nc(NCc3cccnc3)cc(-c3ccc(OC)cc3)n2)cc1`, the XC50 amounted to 1400 nM.

`FC(F)(F)c1ccc(/C=C/c2cncnc2Nc2ccc3[nH]c(Cc4ccccc4)nc3c2)cc1` yielded an XC50 of 608 nM.

`O=C(CCc1c[nH]cn1)Nc1cccc(-c2ccc(-c3nc4ccccc4[nH]3)s2)c1` registered an XC50 of 759 nM.

Compound `Cc1cc(=NN=CC=Cc2ccccc2)c2cc(F)ccc2[nH]1` showed an XC50 of 734 nM.

On to `O=C(Nc1cccc(-c2csc(NC(=O)c3ccc4ccccc4c3)n2)c1)c1ccc2ccccc2c1`, for which the XC50 came to 711 nM.

With `CCCNC(=O)C1Cc2cc(OC)c(OC)cc2C2(N1)C(=O)N(Cc1cccc(OC)c1)c1ccccc12` (stereo unspecified), the XC50 turned out to be 863 nM.

Turning to `CC(=O)Nc1nnc(SCc2c(C)cc(C(C)(C)C)cc2C)s1`, the XC50 is 704 nM.

Take `N#Cc1cccc(NC(=O)Nc2cccc(OC3CCN(Cc4ccccc4)CC3)c2)c1`: the XC50 is 841 nM.

`CCN(CC)CCCN(C(=O)Nc1ccc(C#N)cc1)c1nc(-c2ccc(F)cc2)cs1` registered an XC50 of 650 nM.

Compound `CC(=O)Nc1cccc(/C=C/C(=O)N2CCC(N3CCCCC3)CC2)c1` had an XC50 of 1050 nM.

Turning to `CCCN(C(=O)c1ccccc1C)c1nnc(-c2ccccc2C)s1`, the XC50 turned out to be 1110 nM.

`COC(=O)c1ccc(CC(C)NCC(O)c2cccc(OCc3ccccc3)c2)cc1` (stereo unspecified): the XC50 is 1160 nM.

`CCCCOc1cc(CNCCCCCCNCc2cc(OCCCC)cc3ccccc23)c2ccccc2c1` had an XC50 of 736 nM.

In turn, `O=S(=O)(Nc1ccc2nccc(N3CCNCC3)c2c1)c1ccc(-c2ccccc2)cc1` came in with an XC50 of 977 nM.

Consider `CCOc1ccc(C2CCN(CCCCNC(=O)c3ccc(NC(=O)c4ccc(Cl)cc4)cc3)CC2)c(CC)c1`, for which the XC50 came to 786 nM.

`Nc1ncc(-c2ccsc2)c2ccc(-c3ccc4cn[nH]c4c3)cc12` registered an XC50 of 814 nM.

In the case of `Fc1ccc2[nH]c(-c3cccc(-c4ccc(CNCC5CCCO5)cc4)c3)nc2c1` (stereo unspecified), the XC50 was 541 nM.

Take `CN(C)c1ccc(-c2csc(C(=O)NC3CCN(Cc4ccc(C(C)(C)C)cc4)C3)c2)cc1` (stereo unspecified): the XC50 stood at 947 nM.

For the compound `O=C(Nc1ccc(N2CCN(Cc3c[nH]c4cc(F)ccc34)CC2)cc1)c1ccccc1-c1ccc(C(F)(F)F)cc1`, the XC50 was 985 nM.

`COc1ccc(-c2ccc(NC(=O)c3ccc(Cl)cc3)cc2)cc1CN(C)CCO` showed an XC50 of 813 nM.

Take `O=C(N[C@@H](CC1CCCCC1)C(=O)NC1CC1)c1ccc(O)c(-c2cccc(C(F)(F)F)c2)c1`: the XC50 is 773 nM.

Regarding `CC(C)(C)c1ccc(Cc2cccc3nc(N)nc(N)c23)cc1`, the XC50 was 834 nM.

`Cc1cc(N2CCCC2)nc(Nc2ccc(NC(=O)c3ccccc3)cc2)n1` had an XC50 of 977 nM.

The compound `O=C(CCCCCNC(=O)c1ccc(O)c(-c2ccc(Cl)c(Cl)c2)c1)NCCc1ccc(Cl)c(Cl)c1` gave an XC50 of 756 nM.

Take `CO/C(=C\C=C\c1cc2cc(Cl)c(Cl)cc2[nH]1)C(=O)NC1CC2CCCC(C1)N2C` (stereo unspecified): the XC50 came out at 1000 nM.

With `CCCCN1CCN(CCCCNc2c3ccccc3nc3ccccc23)CC1`, the XC50 is 167 nM.

As to `Cc1cc(-c2ncc[nH]2)ccc1-c1ccc(C(=O)N2CCc3cc4c(cc32)C2(CCN(C)CC2)CO4)cc1`, the XC50 came out at 800 nM.

Compound `CN(C)CCCN(C)c1cccc2c1nc(-c1cccnc1)n2CCNCc1ccccc1` registered an XC50 of 1390 nM.

The compound `Nc1nc(N)c2c(ccc3nn(C4CCCC4)cc32)n1` gave an XC50 of 286 nM.

`CCC1(CC)C(=O)N=C(N2CCCCC2)N(C)C1=O`: the XC50 was 303 nM.

Take `COc1ccc(CNC(=O)c2cnc3c(O)cccc3c2Nc2cccc(NC(=O)c3ccc(Cl)c(Cl)c3)c2)cc1`: the XC50 was determined as 604 nM.

`COc1ccccc1N1CCN(c2cccc(F)c2C#N)CC1` gave an XC50 of 965 nM.

In turn, `CCn1cc(CN2CCCC(C(=O)Nc3ccc(-c4nc5ccccc5[nH]4)cc3)C2)c(C)n1` (stereo unspecified) came in with an XC50 of 802 nM.

Compound `CN1CCCN(Cc2ccc(-c3cccc(NC(=O)c4ccc(F)cc4)c3)cc2)CC1` registered an XC50 of 1090 nM.

In turn, `COc1cc2nc(SCCCC#N)n(C3CCCCCC3)c(=N)c2cc1OC` returned an XC50 of 1140 nM.

In turn, `CC(C)CN(Cc1c(O)ccc2[nH]c(-c3ccc(F)cc3F)nc12)CC(C)C` returned an XC50 of 802 nM.

In turn, `O=C(CCCCCNC(=O)c1ccc(O)c(-c2ccc(Cl)c(Cl)c2)c1)NCCN1CCCCC1` showed an XC50 of 886 nM.

`O=C(NCCc1ccc(Cl)c(Cl)c1)[C@@H]1CCCN1C(=O)c1ccc(O)c(-c2ccc(Cl)c(Cl)c2)c1` came in with an XC50 of 550 nM.

`CCCOc1ccc(NC(=O)c2cccs2)cc1Cl` had an XC50 of 859 nM.

`CC(C)(CNCc1ccc(OC(F)(F)F)cc1)c1nc(-c2ccc(Cl)c(O)c2)c(-c2ccncc2)[nH]1` yielded an XC50 of 545 nM.

`c1ccc(-c2nc(Nc3ccncc3)sc2-c2ccccc2)cc1` returned an XC50 of 812 nM.
